Experimental data taken from ChEMBL document CHEMBL1201862, “PubChem BioAssay data set” (2004).
One block for each compound: values may come before it. Active and inactive are the calls of the source.

Tests used:
[1] = molecular target: T1, Oxysterols receptor LXR-beta (Homo sapiens, UniProt P55055); assay type: functional, cell-based;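 note: Cell-based luminescence dose-response assay of agonist activity at LXR, run as a confirmatory counterscreen to a daf-12 agonist screen; HEK293 cells with Gal4-LXR fusion and GAL4-driven luciferase reporter; agonist potency from rising luciferase signal of a Gal4-LXR reporter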
T1 sequence (P55055 whole entry): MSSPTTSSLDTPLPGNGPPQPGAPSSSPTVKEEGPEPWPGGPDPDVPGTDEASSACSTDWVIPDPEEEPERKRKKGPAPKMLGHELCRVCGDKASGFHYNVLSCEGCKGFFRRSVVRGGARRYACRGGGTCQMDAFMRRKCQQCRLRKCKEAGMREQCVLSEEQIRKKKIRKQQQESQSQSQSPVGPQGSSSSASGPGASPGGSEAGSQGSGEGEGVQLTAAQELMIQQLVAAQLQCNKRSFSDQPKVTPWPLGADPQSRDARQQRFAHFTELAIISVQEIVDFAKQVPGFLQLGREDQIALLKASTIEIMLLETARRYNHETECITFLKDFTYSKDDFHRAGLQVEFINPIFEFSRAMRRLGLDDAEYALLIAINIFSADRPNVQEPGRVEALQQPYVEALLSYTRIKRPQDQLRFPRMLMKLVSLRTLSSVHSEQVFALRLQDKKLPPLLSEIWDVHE

[2] = Luminescence-based cell-based high throughput dose response assay to identify activators of the DAF-12 from the parasite S. stercoralis (ssDAF-12).; assay type: functional
Melanocortin receptor 4 = Melanocortin receptor 4 (Homo sapiens, UniProt P32245); assay type: functional, cell-based;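 note: Cell-based assay with luminescence read-out, confirmatory dose-response testing for agonist activity of biased ligands at MC4R; human U2OS cells with tagged receptor and beta-arrestin; potency of agonists that increase receptor coupling to beta-arrestin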
[3] = reduced cellular PGC1a acetyl-lysine signal – cell-based, cherry-picked samples, dose response (AID 720514); assay type: functional;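 note: potency may reflect raised or lowered acetylation signal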
fMet-Leu-Phe receptor = molecular target: T2, fMet-Leu-Phe receptor (Homo sapiens, UniProt P21462); experiment: formyl peptide receptor binders – dose response (AID 519); assay type: functional
T2 sequence (P21462 whole entry): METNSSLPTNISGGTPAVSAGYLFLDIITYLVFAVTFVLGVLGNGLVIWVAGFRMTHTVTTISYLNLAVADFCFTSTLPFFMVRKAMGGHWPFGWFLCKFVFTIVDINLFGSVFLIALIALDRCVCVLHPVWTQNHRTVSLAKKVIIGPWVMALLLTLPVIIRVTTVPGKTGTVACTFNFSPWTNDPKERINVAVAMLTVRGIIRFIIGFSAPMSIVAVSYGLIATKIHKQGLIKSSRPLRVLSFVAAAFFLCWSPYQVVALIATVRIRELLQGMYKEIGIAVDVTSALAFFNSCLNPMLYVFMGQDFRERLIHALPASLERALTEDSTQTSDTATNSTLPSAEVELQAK

[4] = toxicity toward HepG2 liver cells – cell-based, plate reader, cherry-pick, antagonist series, cytotoxicity control, dose response (AID 743416); assay type: functional
[5] = molecular target: T3, Microphthalmia-associated transcription factor (Homo sapiens, UniProt O75030); experiment: reducers of TRPM1 reporter luminescence, concentration series – cell-based, SK-MEL-5, cherry-picked, set 3, MITF inhibitor project, dose response (AID 493073); assay type: functional;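 note: SK-MEL-5 melanoma cells with luciferase driven by the MITF target TRPM1 promoter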
T3 sequence (O75030 whole entry): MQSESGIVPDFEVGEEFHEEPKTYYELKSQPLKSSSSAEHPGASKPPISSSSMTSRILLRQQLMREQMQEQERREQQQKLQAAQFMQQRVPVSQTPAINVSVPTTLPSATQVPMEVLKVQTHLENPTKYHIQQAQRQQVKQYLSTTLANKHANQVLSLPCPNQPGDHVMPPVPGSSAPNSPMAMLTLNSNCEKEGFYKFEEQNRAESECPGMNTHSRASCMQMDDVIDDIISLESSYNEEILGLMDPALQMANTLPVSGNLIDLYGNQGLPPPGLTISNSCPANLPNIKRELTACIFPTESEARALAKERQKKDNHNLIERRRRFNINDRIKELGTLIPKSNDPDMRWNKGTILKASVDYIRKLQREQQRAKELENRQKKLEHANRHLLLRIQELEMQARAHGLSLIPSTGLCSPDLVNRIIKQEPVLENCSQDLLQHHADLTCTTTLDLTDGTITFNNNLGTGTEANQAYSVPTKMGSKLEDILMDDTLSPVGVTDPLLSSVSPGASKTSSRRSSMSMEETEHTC

[6] = blockers of bursicon-stimulated LGR2 cAMP reporter – cell-based, HEK293, CRE-luciferase reporter, cherry pick, set 2, dose response (AID 743343); assay type: functional;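 note: transfected cells were stimulated with diluted bursicon conditioned medium after compound addition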
[7] = blockade of melanocortin 4 receptor signaling – cell-based, plate reader, cherry pick, counter-screen for LGR2 antagonist project, dose response (AID 743444); assay type: functional;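 note: transfected HEK 293 cells stimulated with alpha-MSH peptide; potency of inhibitors of the alpha-MSH evoked signal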
[8] = A549 cell cytotoxicity, dose response, cytotoxicity control, plate reader, cherry-pick, antagonist series (AID 743412); assay type: functional, cell-based
[9] = viability loss in HEK293 cells – cell-based, plate reader, cherry-picked samples, cytotoxicity control, dose response (AID 743446); assay type: functional
[10] = Luminescence Cell-Based Dose Confirmation HTS to Identify Inhibitors of Platelet Dense Granule Release. [Related pubchem assays: 1663 (Primary HTS), 1678 (Summary of Project)]; assay type: functional
HEK293 = experiment: EBV LMP1 TES2 canonical NF-kB signalling blockers – cell-based, HEK293, luciferase, cherry-pick, dose response (AID 588343); assay type: functional; details: Homo sapiens
[11] = molecular target: Luciferin 4-monooxygenase (Photinus pyralis, UniProt P08659); experiment: inhibition of purified Photinus pyralis luciferase – biochemical, luminescence, dose response (AID 1891)
Protein skinhead-1 = molecular target: T4, Protein skinhead-1 (Caenorhabditis elegans, UniProt P34707); assay type: functional
T4 sequence (P34707 whole entry): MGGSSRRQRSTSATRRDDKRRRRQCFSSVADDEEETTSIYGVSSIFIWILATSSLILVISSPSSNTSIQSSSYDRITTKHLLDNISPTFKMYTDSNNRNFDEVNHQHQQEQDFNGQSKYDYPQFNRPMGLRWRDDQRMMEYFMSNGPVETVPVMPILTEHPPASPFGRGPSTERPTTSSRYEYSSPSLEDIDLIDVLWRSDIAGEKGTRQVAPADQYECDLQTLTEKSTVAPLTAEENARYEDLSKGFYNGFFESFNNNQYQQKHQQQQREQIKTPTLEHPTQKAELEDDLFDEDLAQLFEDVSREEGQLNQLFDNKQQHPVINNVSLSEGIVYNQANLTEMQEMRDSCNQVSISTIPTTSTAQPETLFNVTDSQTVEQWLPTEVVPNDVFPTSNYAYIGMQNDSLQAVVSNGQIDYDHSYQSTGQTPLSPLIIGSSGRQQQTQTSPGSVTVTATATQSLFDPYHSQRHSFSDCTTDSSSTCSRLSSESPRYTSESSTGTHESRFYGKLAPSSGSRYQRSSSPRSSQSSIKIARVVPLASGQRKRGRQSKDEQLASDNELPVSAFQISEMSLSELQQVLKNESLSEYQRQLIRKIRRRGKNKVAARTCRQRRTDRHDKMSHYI

Cytochrome P450 1A2 = molecular target: T5, Cytochrome P450 1A2 (Homo sapiens, UniProt P05177);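 note: PubChem cytochrome P450 panel assay, CYP1A2 panel member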
T5 sequence (P05177 whole entry): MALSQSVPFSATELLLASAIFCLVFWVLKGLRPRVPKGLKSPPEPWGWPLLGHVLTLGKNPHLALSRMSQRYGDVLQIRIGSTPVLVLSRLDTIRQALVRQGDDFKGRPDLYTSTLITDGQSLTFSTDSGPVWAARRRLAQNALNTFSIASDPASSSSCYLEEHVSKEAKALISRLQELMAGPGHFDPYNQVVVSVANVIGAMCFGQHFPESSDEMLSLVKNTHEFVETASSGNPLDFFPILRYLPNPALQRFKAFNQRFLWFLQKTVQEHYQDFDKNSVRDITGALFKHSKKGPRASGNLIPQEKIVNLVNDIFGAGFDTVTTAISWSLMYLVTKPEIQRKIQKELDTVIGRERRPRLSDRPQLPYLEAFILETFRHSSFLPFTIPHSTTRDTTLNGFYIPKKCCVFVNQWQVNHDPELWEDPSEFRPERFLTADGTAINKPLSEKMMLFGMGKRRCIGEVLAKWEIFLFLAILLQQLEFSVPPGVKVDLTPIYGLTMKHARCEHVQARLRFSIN

[12] = molecular target: T6, Calpain-2 catalytic subunit (Sus scrofa, UniProt P43367); experiment: m-calpain protease blockers, concentration series – biochemical, fluorogenic peptide substrate, dose response (AID 1420); assay type: functional
T6 sequence (P43367 whole entry): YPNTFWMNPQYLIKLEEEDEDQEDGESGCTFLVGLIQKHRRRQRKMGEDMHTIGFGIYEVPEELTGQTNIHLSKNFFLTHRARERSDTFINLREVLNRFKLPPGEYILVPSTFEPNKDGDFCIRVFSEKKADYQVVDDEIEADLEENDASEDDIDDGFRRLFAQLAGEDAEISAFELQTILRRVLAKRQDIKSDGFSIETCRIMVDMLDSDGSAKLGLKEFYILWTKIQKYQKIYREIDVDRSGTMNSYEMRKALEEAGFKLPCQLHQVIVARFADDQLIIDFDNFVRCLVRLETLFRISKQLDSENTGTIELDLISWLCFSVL

Cytochrome P450 2C9 = Cytochrome P450 2C9 (Homo sapiens, UniProt P11712)
[13] = general mammalian cell viability loss – activator set, cherry-pick, cytotoxicity control for miR-122 modulator project, dose response (AID 720690); assay type: functional, cell-based;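 note: HEK293T human cells scored for general mammalian cytotoxicity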

Sequence of Melanocortin receptor 4 (P32245 whole entry): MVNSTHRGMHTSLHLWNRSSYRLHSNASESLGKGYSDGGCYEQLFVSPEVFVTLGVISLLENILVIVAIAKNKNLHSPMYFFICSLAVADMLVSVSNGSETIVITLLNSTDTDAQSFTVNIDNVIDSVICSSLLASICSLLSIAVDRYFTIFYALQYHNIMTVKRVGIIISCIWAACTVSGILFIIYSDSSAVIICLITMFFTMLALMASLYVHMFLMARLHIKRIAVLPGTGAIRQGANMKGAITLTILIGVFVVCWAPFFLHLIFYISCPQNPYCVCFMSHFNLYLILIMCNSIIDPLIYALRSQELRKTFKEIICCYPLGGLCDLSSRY
Sequence of Luciferin 4-monooxygenase (P08659 whole entry): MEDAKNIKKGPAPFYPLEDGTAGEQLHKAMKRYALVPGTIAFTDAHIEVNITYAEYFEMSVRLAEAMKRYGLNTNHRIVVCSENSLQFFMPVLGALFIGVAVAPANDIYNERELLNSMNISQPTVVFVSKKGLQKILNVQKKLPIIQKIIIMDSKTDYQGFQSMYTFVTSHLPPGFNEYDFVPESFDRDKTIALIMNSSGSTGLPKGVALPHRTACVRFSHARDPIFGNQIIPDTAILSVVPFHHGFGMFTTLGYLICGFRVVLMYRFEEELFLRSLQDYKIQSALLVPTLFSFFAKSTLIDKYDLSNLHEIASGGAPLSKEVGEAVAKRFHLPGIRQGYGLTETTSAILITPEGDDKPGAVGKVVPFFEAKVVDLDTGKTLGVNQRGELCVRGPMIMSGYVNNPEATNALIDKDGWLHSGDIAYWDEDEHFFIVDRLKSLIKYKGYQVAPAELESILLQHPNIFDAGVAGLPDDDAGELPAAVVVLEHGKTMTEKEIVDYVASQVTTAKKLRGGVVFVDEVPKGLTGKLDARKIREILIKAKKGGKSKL
Sequence of Cytochrome P450 2C9 (P11712 whole entry): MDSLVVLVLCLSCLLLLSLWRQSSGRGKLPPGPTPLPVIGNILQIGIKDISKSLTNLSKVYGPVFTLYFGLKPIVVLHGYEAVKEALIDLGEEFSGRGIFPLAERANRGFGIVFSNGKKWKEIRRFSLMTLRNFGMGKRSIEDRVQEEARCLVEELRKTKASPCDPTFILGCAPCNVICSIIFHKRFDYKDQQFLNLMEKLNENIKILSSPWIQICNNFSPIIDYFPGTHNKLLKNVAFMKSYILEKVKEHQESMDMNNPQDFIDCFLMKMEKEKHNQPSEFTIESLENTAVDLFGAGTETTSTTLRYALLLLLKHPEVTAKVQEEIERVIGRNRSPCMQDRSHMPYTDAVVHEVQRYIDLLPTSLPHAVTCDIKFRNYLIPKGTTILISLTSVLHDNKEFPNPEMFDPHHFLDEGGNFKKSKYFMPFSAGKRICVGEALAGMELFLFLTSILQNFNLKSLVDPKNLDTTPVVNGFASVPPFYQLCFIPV

Compound: Oc1ccccc1-c1cc(-c2ccccc2)no1
EC50 (cells): > 67.5 µM (inactive)
EC50 [1]: > 67.5 µM (inactive)
IC50 [2]: > 67.5 µM (inactive)

EC50 (Melanocortin receptor 4): > 89.2 µM (inactive)
Compound: O=C(Nc1cccc(NC(=S)NC(=O)c2cccs2)c1)c1ccccc1

Compound: CN(C)CCCN(C(=O)CCOc1ccccc1)c1nc2ccc(F)cc2s1
AC50 [3]: 12.8 µM (active)

Ki (fMet-Leu-Phe receptor): 57.5 µM (inactive)
Compound: COc1cc(C2C(C(=O)c3ccc4c(c3)CC(C)O4)=C(O)C(=O)N2CCCn2ccnc2)ccc1O (stereo not drawn)

Compound: Cc1cc(C)n(-c2ccc(C(=O)Nc3ccc(C)c(S(=O)(=O)N4CCOCC4)c3)cc2)n1
AC50 [4]: 33.8 µM (active)
AC50 [5]: 4.54 µM (active)
AC50 [6]: 18.1 µM (active)
AC50 [7]: 13.4 µM (active)
AC50 [8]: > 52 µM (inactive)
AC50 [9]: 25.4 µM (active)

Compound: COc1ccc(-c2nc(-c3cccs3)no2)cc1
EC50 [10]: 18.7 µM (active)
AC50 (HEK293): 1.7 µM (active)
EC50 [11]: 1.59 µM (active)
AC50 [6]: 2.18 µM (active)
IC50 (Protein skinhead-1): > 100 µM (inactive)
AC50 [7]: 3.02 µM (active)
AC50 [9]: > 52 µM (inactive)

AC50 (Cytochrome P450 1A2): 15.8 µM (inconclusive)
EC50 (Melanocortin receptor 4): > 89.2 µM (inactive)
IC50 [12]: > 50 µM (not active)
AC50 (Cytochrome P450 2C9): 3.55 µM (inconclusive)
Compound: CCOc1ccc(NC(=S)NC(=O)/C=C/c2ccc(C)cc2)c([N+](=O)[O-])c1

Ki (fMet-Leu-Phe receptor): > 66.7 µM (inactive)
Compound: CCOC(=O)c1c(NC(=O)c2cc(C3CC3)on2)sc2c1CCCC2

Compound: CC(=O)n1nc(-c2ccccc2)cc1-c1ccccc1
EC50 (cells): > 67.5 µM (inactive)
EC50 [1]: > 67.5 µM (inactive)

Compound: COc1ccccc1CNc1nc(Nc2ccccc2Cl)c2sccc2n1
AC50 [13]: 2.71 µM (active)

Compound: Cc1ccccc1/N=C/C1=C(O)c2ccccc2C1=O
EC50 [10]: 3.79 µM (active)
AC50 [4]: > 52 µM (inactive)
EC50 [11]: 1.02 µM (active)
AC50 [6]: 1.03 µM (active)
AC50 [7]: 1.67 µM (active)
AC50 [8]: > 52 µM (inactive)
